Like-named read-outs stand apart in the source and are kept apart here. Some results are limits rather than exact numbers.

For series [1], the target named is T1, human CB2R (Homo sapiens, UniProt P34972). Kind of series: Competition binding assay, displacement of [3H]-CP-55,940 from membranes of HEK-293 cells overexpressing CB2R. More on the design: purchased Perkin-Elmer, Italy; host or cells: HEK-293 cells (membranes). On the procedure:
(§1) The binding affinities (Ki values) of the compounds for human recombinant hCB1R and hCB2R were determined as previously described, using SR144528 as a reference compound [30], and are reported in Table 1.
(§2) Compound affinity for CB1R and CB2R was measured as previously reported. […] Competition curves were performed by displacing [^3H]-CP-55 940 with increasing concentrations of compounds (0.1 nM–10 or 25 μM). […] All compounds were tested following the procedure described by the manufacturer (Perkin-Elmer, Italy). Displacement curves were generated by incubating drugs with [^3H]-CP-55 940 for 90 min at 30 °C. Ki values were calculated by applying the Cheng−Prusoff equation to the IC50 values for the displacement of the bound radioligand by increasing concentrations of the test compound. Data represent the mean values of three independent experiments performed in duplicate and are expressed as the average of Ki (µM) ± standard deviation. Data were analyzed using PRISM.9.3 software (GraphPad Software Inc, San Diego, CA, USA).

Series [2] deals with T2, human recombinant CB1R (Homo sapiens, UniProt P21554).
T2 construct: purchased Perkin-Elmer, Italy; host or cells: HEK-293 cells (membranes)
Kind of series: Competition binding assay, displacement of [3H]-CP-55,940 from membranes of HEK-293 cells overexpressing CB1R. As to conditions: for inhibition at 10 µM: read-out: % Displacement/ Max. Conc. Tested, hCB1R. On the procedure:
as §1, §2
A general note: Displacement assays read how much labelled ligand stays bound in the presence of the test substance.

The target of series [3] is T1, human CB2R. Kind of series: cAMP Hunter assay, effect on NKH-477-induced cAMP levels (agonist mode). The class given is cell-based. As for the experimental part: The above-mentioned compounds were tested for their functional activity.
Gi-coupled cAMP modulation was measured following the manufacturer’s protocol (Eurofins, Fremont, CA, USA), as previously reported. Briefly, CHO-K1 cells overexpressing the human CB2R were plated into a 96-well plate (10,000 cells/well) and incubated overnight at 37 °C, 5% CO2. Media was aspirated and replaced with 30 μL of assay buffer. Cells were incubated for 30 min at 37 °C with 15 μL of 3× dose−response solutions of samples prepared in the presence of a cell assay buffer containing 3× of 25 μM NKH-477 solution to stimulate adenylate cyclase and enhance basal cAMP levels. For those compounds not showing a decrease in cAMP levels, the effect upon receptor activation in the presence of the JWH-133 selective agonist was investigated. Cells were pre-incubated with samples (15 min at 37 °C at 6× the final desired concentration), followed by 30 min incubation with the JWH-133 agonist challenge at the EC80 concentration (EC80 = 4 μM, previously determined in separate experiments) in the presence of NKH-477 to stimulate adenylate cyclase and enhance cAMP levels. Cell lysis and cAMP detection were performed as per the manufacturer’s protocol. Luminescence measurements were performed using a GloMax Multi Detection System (Promega, Italy). Data are reported as the means ± SEM of three independent experiments conducted in triplicate and were normalized considering the NKH-477 stimulus alone as 100% of the response. Data were analyzed using PRISM.9.3 software (GraphPad Software Inc, San Diego, CA, USA).
Figure 7 Concentration-response curves of compounds in the cAMP Hunter assay. Curves show the effect of increasing concentrations of compounds on NKH-477-induced cAMP levels in stable CHO cells expressing the human CB2. Data are reported as the means ± SEM of three independent experiments conducted in triplicate, normalized to the maximal and minimal responses.

[4] abbreviates: [3H]-CP-55,940 displacement, HEK-293 membranes, 90 min at 30 °C, Cheng-Prusoff, read-out: Ki hCB2R (µM ± S.E.).
Setting [5] is: max conc. tested 10 µM, read-out: % Displacement/ Max Conc. Tested, hCB2R (converted).
Where [6] appears, read: [3H]-CP-55,940 displacement, HEK-293 membranes, 90 min at 30 °C, Cheng-Prusoff, read-out: Ki hCB1R (µM ± S.E.).

T2 sequence (P21554 whole entry): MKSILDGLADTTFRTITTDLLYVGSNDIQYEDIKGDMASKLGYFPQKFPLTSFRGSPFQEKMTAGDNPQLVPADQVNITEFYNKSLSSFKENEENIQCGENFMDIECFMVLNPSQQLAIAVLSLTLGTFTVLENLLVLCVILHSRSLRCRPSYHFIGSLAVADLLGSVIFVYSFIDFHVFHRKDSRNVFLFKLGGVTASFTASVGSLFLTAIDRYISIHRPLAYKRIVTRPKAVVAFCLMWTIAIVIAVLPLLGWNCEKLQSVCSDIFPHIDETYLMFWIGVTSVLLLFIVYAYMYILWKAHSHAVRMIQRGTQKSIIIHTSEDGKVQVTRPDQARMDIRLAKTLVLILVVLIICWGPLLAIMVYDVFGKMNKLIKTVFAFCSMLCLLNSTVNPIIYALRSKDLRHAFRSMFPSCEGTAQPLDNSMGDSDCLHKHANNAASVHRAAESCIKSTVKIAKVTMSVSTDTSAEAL
T1 sequence (P34972 whole entry): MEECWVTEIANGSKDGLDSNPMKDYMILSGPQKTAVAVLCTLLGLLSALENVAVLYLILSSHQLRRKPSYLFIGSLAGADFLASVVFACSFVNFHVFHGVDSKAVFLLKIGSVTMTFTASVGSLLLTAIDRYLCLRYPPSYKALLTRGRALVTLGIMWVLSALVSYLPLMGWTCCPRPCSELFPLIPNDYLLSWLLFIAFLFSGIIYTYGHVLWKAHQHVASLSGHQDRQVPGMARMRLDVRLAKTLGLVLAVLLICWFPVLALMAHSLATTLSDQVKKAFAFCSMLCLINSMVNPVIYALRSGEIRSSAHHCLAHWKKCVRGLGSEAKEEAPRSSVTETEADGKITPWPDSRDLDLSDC

Take `Cc1cc(C)c(S(=O)(=O)N=C2CN(C(C)(C)C)C(=O)N2CC2CC2)c(C)c1` [Compound 10f, N-[1-tert-Butyl-3-cyclopropylmethyl-2-oxoimidazolidin-4-ylidene]-2,4,6-trimethylbenzenesulfonamide]: the melting point – broadly, the temperature of the solid-liquid transition – was 149 to 150 °C. For the same compound, the inhibitory constant (Ki) (commonly a dissociation constant, usually derived from enzyme kinetics or from competition with a known ligand) in series [1] (setting [4]) worked out at 0.63 ± 0.14 µM. In addition, the inhibition at 10 µM in series [1] (setting [5]) was 81.3%. Moreover, the Ki in series [2] (setting [6]) was above 10 µM. Further, in series [2], the inhibition at 10 µM came to 15.4%.

For the compound `CC(C)(C)N1CC(=NS(=O)(=O)c2cccc3ccccc23)N(CC2CC2)C1=O` [Compound 10g, N-[1-tert-Butyl-3-cyclopropylmethyl-2-oxoimidazolidin-4-ylidene]naphthalene-1-sulfonamide], the EC50 – broadly, the concentration that produces a half-maximal response – in series [3] was determined as 0.072 µM. Moreover, the “Effect on NKH-477-induced cAMP levels (functional behavior)” value in series [3] (CHO-K1 cells overexpressing human CB2R, compound alone) was “typical agonist behavior”. Also, the Ki was 0.06 ± 0.01 µM in series [1] and above 10 µM in series [2]. Besides, the inhibition at 10 µM in series [1] (read-out: % Displacement/ Max Conc. Tested, hCB2R) was 95.7%; in series [2], 24.9%.

Take `COCCN1C(=O)N(C(C)(C)C)CC1=NS(C)(=O)=O` [Compound 11a, N-[1-tert-Butyl-3-(2-methoxyethyl)-2-oxoimidazolidin-4-ylidene]methanesulfonamide]: the melting point was in the range of 70.5 to 71 °C. In series [1] (setting [4]), the Ki was above 10 µM. For the same compound, the inhibition at 10 µM in series [1] (setting [5]) was 14.1%. For the same compound, the Ki in series [2] (setting [6]) is above 10 µM. For the same compound, the inhibition at 10 µM in series [2] turned out to be 65.3%.

Compound `COCCN1C(=O)N(C(C)(C)C)CC1=NS(=O)(=O)c1ccccc1` [Compound 11b, N-[1-tert-Butyl-3-(2-methoxyethyl)-2-oxoimidazolidin-4-ylidene]benzenesulfonamide] showed a melting point of 104.5 to 105 °C. Also, the Ki in series [1] (setting [4]) was above 10 µM. Further, the inhibition at 10 µM in series [1] (setting [5]) was 21.2%. In addition, the Ki in series [2] (setting [6]) was above 10 µM. Further, the inhibition at 10 µM in series [2] is 52.6%.

Turning to `COCCN1C(=O)N(C(C)(C)C)CC1=NS(=O)(=O)c1ccc(C)cc1` [Compound 11c, N-[1-tert-Butyl-3-(2-methoxyethyl)-2-oxoimidazolidin-4-ylidene]-4-methylbenzene-1-sulfonamide], the melting point is 106 to 107 °C. For the same compound, the Ki in series [1] (setting [4]) was above 10 µM. Moreover, the inhibition at 10 µM in series [1] (setting [5]) was 33.4%. For the same compound, in series [2] (setting [6]), the inhibition constant Ki was above 10 µM. For the same compound, the inhibition at 10 µM in series [2] stood at 57%.

Turning to `COCCN1C(=O)N(C(C)(C)C)CC1=NS(=O)(=O)c1ccc(Br)cc1` [Compound 11d, 4-Bromo-N-[1-tert-butyl-3-(2-methoxyethyl)-2-oxoimidazolidin-4-ylidene]benzenesulfonamide], the melting point was in the range of 103.5 to 104 °C. Further, in series [1] (setting [4]), the Ki was above 10 µM. Moreover, the inhibition at 10 µM in series [1] (setting [5]) is 42.7%. Further, the inhibitory constant (Ki) in series [2] (setting [6]) was above 10 µM. The inhibition at 10 µM in series [2] came to 50.1%.

The compound `COCCN1C(=O)N(C(C)(C)C)CC1=NS(=O)(=O)c1cccc(Br)c1` [Compound 11e, 3-Bromo-N-[1-tert-butyl-3-(2-methoxyethyl)-2-oxoimidazolidin-4-ylidene]benzenesulfonamide] displayed a melting point of 104 to 105 °C. For the same compound, the Ki in series [1] (setting [4]) was above 10 µM. Besides, the inhibition at 10 µM in series [1] (setting [5]) is 41.1%. In addition, the Ki in series [2] (setting [6]) is above 10 µM. Besides, the inhibition at 10 µM in series [2] stood at 10%.

In turn, `COCCN1C(=O)N(C(C)(C)C)CC1=NS(=O)(=O)c1c(C)cc(C)cc1C` [Compound 11f, N-[1-tert-Butyl-3-(2-methoxyethyl)-2-oxoimidazolidin-4-ylidene]-2,4,6-trimethylbenzene-1-sulfonamide] had a melting point of 141 to 143.5 °C. In addition, the Ki in series [1] (setting [4]) came out at 3.45 ± 0.95 µM. For the same compound, the inhibition at 10 µM in series [1] (setting [5]) is 64.8%. Further, the inhibition constant (Ki) in series [2] (setting [6]) is above 10 µM. Besides, the inhibition at 10 µM in series [2] was 55.7%.

Compound `COCCN1C(=O)N(C(C)(C)C)CC1=NS(=O)(=O)c1cccc2ccccc12` [Compound 11g, N-[1-tert-Butyl-3-(2-methoxyethyl)-2-oxoimidazolidin-4-ylidene]naphthalene-1-sulfonamide] showed a melting point of 110.5 to 111 °C. Besides, the Ki in series [1] (setting [4]) came to 1.66 ± 0.2 µM. The inhibition at 10 µM in series [1] (setting [5]) was 78.7%. For the same compound, in series [2] (setting [6]), the Ki was above 10 µM. Also, the inhibition at 10 µM in series [2] is 13.5%.

Take `COCCN1C(=O)N(C(C)(C)C)CC1=NS(=O)(=O)c1ccc2ccccc2c1` [Compound 11h, N-[1-tert-Butyl-3-(2-methoxyethyl)-2-oxoimidazolidin-4-ylidene]naphthalene-2-sulfonamide]: the melting point is 129.5 to 130.5 °C. Also, the Ki in series [1] (setting [4]) was above 10 µM. Moreover, the inhibition at 10 µM in series [1] (setting [5]) was 40.1%. In series [2] (setting [6]), the Ki is above 10 µM. Also, the inhibition at 10 µM in series [2] is 45.3%.

`Cc1ccc(S(=O)(=O)N=C2CN(C34CC5CC(CC(C5)C3)C4)C(=O)N2CC2CC2)cc1` [Compound 12c, N-[1-Adamant-1-yl-3-cyclopropylmethyl-2-oxoimidazolidin-4-ylidene]-4-methyl-1-benzenesulfonamide] came in with a melting point of 188.5 to 189 °C. For the same compound, in series [1] (setting [4]), the Ki was above 10 µM. In addition, in series [1] (setting [5]), the inhibition at 10 µM is 20.6%. The Ki in series [2] (setting [6]) was above 10 µM. Further, the inhibition at 10 µM in series [2] turned out to be 34.6%.

`O=C1N(CC2CC2)C(=NS(=O)(=O)c2ccc(Br)cc2)CN1C12CC3CC(CC(C3)C1)C2` [Compound 12d, N-[1-Adamant-1-yl-3-cyclopropylmethyl-2-oxoimidazolidin-4-ylidene]-4-bromo-1-benzenesulfonamide] returned a melting point of 176 to 176.5 °C. Besides, the Ki in series [1] (setting [4]) is above 10 µM. Moreover, in series [1] (setting [5]), the inhibition at 10 µM was 32.5%. Also, the inhibition constant (Ki) in series [2] (setting [6]) is above 10 µM. Besides, the inhibition at 10 µM in series [2] stood at 47.9%.

Take `Cc1cc(C)c(S(=O)(=O)N=C2CN(C34CC5CC(CC(C5)C3)C4)C(=O)N2CC2CC2)c(C)c1` [Compound 12f, N-[1-Adamant-1-yl-3-cyclopropylmethyl-2-oxoimidazolidin-4-ylidene]-2,4,6-trimethyl-1-benzenesulfonamide]: the melting point lay in the range of 166.5 to 167.5 °C. Besides, in series [1] (setting [4]), the Ki was above 10 µM. Also, the inhibition at 10 µM in series [1] (setting [5]) is 40.2%. For the same compound, the Ki in series [2] (setting [6]) was above 10 µM. Moreover, the inhibition at 10 µM in series [2] came out at 59.2%.

The compound `O=C1N(CC2CC2)/C(=N/S(=O)(=O)c2cccc3ccccc23)CN1C12CC3CC(CC(C3)C1)C2` [Compound 12g, N-[1-Adamant-1-yl-3-cyclopropylmethyl-2-oxoimidazolidin-4-ylidene]naphtalene-1-sulfonamide] gave a melting point of 188.5 to 189 °C. The Ki in series [1] (setting [4]) is above 10 µM. Besides, the inhibition at 10 µM in series [1] (setting [5]) is 45.6%. In addition, in series [2] (setting [6]), the Ki is above 10 µM. For the same compound, the inhibition at 10 µM in series [2] turned out to be 12.8%.

For the compound `O=C1N(CC2CC2)/C(=N/S(=O)(=O)c2ccc3ccccc3c2)CN1C12CC3CC(CC(C3)C1)C2` [Compound 12h, N-[1-Adamant-1-yl-3-cyclopropylmethyl-2-oxoimidazolidin-4-ylidene]naphtalene-2-sulfonamide], the melting point is 167 to 167.5 °C. Further, the Ki in series [1] (setting [4]) was above 10 µM. The inhibition at 10 µM in series [1] (setting [5]) was 17.7%. The Ki in series [2] (setting [6]) was above 10 µM. Also, the inhibition at 10 µM in series [2] is 38.5%.

(Values after publication PMC9738591, “N-[1,3-Dialkyl(aryl)-2-oxoimidazolidin-4-ylidene]-aryl(alkyl)sulphonamides as Novel Selective Human Cannabinoid Type 2 Receptor (hCB2R) Ligands; Insights into the Mechanism of Receptor Activation/Deactivation” (Molecules, 2022).)
